# Reference: patent US8912207B2, “2-aldoximino-5-fluoropyrimidine derivatives” (Dow AgroSciences, LLP., priority 2009, dated 2014)
# Like-named read-outs stand apart in the source and are kept apart here.
# What was measured:
# [1] = system: Mycosphaerella graminicola; anamorph: Septoria tritici; Bayer code SEPTTR; assay: Fungicidal activity: leaf blotch of wheat, one-day protectant (1DP) and three-day curative (3DC) tests on wheat plants; type: in vivo, Septoria tritici on wheat plants (variety Yuma); details: Zymoseptoria tritici, rating of % disease control vs untreated inoculated plants
# Description: Evaluation of Fungicidal Activity: Leaf Blotch of Wheat (Mycosphaerella graminicola; anamorph: Septoria tritici; Bayer code […]) Wheat plants (variety Yuma) were grown from seed in a greenhouse in 50% mineral soil/50% soil-less Metro mix until the first leaf was fully emerged, with 7-10 seedlings per pot. These plants were inoculated with an aqueous spore suspension of Septoria tritici either prior to or after fungicide treatments. After inoculation the plants were kept in 100% relative humidity (one day in a dark dew chamber followed by two to three days in a lighted dew chamber) to permit spores to germinate and infect the leaf. The plants were then transferred to a greenhouse for disease to develop. The following table presents the activity of typical compounds of the present disclosure when evaluated in these experiments. The effectiveness of the test compounds in controlling disease was determined by assessing the severity of disease on treated plants, then converting the severity to percent control based on the level of disease on untreated, inoculated plants. In each case of Table III the rating scale is as follows: […]
# [2] = 24 h, one-day protectant, read-out: SEPTTR 25 ppm 1DP
# [3] = 24 h, one-day protectant, read-out: SEPTTR 100 ppm 1DP
# [4] = 72 h, three-day curative, read-out: SEPTTR 25 ppm 3DC
# [5] = 72 h, three-day curative, read-out: SEPTTR 100 ppm 3DC
SMILES,melting point,"pest or weed control at 25 ppm [1, 2] [%]","pest or weed control at 100 ppm [1, 3] [%]","pest or weed control at 25 ppm [1, 4] [%]","pest or weed control at 100 ppm [1, 5] [%]"
CN(C)c1nc(ON=Cc2ccccc2)ncc1F [Compound 51],75 to 76 °C,0 to 25,0 to 25,0 to 25,51 to 75
"COc1ccc(C=NOc2ncc(F)c(/N=C/N(C)C)n2)cc1 [Compound 13, N′-{5-Fluoro-2-[1-(4-methoxyphenyl)-methylideneaminooxy]pyrimidin-4-yl}-N,N-dimethylformamidine]",243 to 245 °C (dec.),76 to 100,76 to 100,76 to 100,76 to 100
Cc1ccc(C=NOc2ncc(F)c(/N=C/N(C)C)n2)cc1 [Compound 15],247 to 253 °C (dec.),76 to 100,76 to 100,76 to 100,76 to 100
CC=NOc1ncc(F)c(N(C)C)n1 [Compound 54],122 to 124 °C,0 to 25,0 to 25,0 to 25,0 to 25
"Nc1nc(ON=Cc2ccccc2Cl)ncc1F [Compound 5, 2-chlorobenzaldehyde O-(4-amino-5-fluoropyrimidin-2-yl)oxime]",220 to 230 °C (dec.),76 to 100,76 to 100,76 to 100,76 to 100
"CN(C)/C=N/c1nc(ON=Cc2ccccc2)ncc1F [Compound 1, N′-{5-fluoro-2-[1-phenylmethylideneamino-oxy]pyrimidin-4-yl}-N,N-dimethylformamidine]",240 to 244 °C (dec.),76 to 100,76 to 100,76 to 100,76 to 100
CC(C)C=NOc1ncc(F)c(N)n1 [Compound 7],105 to 107 °C,76 to 100,76 to 100,76 to 100,76 to 100
COc1ccccc1C=NOc1ncc(F)c(/N=C/N(C)C)n1 [Compound 14],220 to 230 °C (dec.),76 to 100,76 to 100,76 to 100,76 to 100
CC(C)C=NOc1ncc(F)c(N(C)Cc2ccc(Cl)cc2)n1 [Compound 45],224 to 228 °C (dec.),0 to 25,0 to 25,26 to 50,0 to 25
Nc1nc(ON=Cc2ccccc2)ncc1F [Compound 6],151 to 153 °C,76 to 100,76 to 100,76 to 100,76 to 100
COc1ccc(CN(C)c2nc(ON=CC(C)C)ncc2F)cc1 [Compound 50],110 to 112 °C,0 to 25,0 to 25,26 to 50,26 to 50

# Further lines, with some results ahead:
melting point,SMILES,"pest or weed control at 25 ppm [1, 2] [%]","pest or weed control at 100 ppm [1, 3] [%]","pest or weed control at 25 ppm [1, 4] [%]","pest or weed control at 100 ppm [1, 5] [%]"
46 to 50 °C,COc1ccc(C=NOc2ncc(F)c(N(C)Cc3ccc(OC)cc3)n2)cc1 [Compound 48],0 to 25,0 to 25,26 to 50,51 to 75
119 to 121 °C,Fc1cnc(ON=Cc2ccc(Cl)cc2)nc1NCc1ccc(Cl)cc1 [Compound 27],0 to 25,26 to 50,26 to 50,51 to 75
78 to 81 °C,CN(Cc1ccccc1)c1nc(ON=Cc2ccc(Cl)cc2)ncc1F [Compound 37],0 to 25,51 to 75,26 to 50,76 to 100
250 to 270 °C (dec.),COc1ccc(C=NOc2ncc(F)c(N)n2)cc1 [Compound 12],76 to 100,76 to 100,76 to 100,76 to 100
79 to 82 °C,CC=NOc1ncc(F)c(NCc2ccc(OC)cc2)n1 [Compound 34],0 to 25,26 to 50,26 to 50,76 to 100
115 to 116 °C,CN(Cc1ccc(Cl)cc1)c1nc(ON=Cc2ccc(Cl)cc2)ncc1F [Compound 42],0 to 25,26 to 50,0 to 25,0 to 25
180 to 194 °C,COc1ccc(C=NOc2ncc(F)c(NCc3ccccc3)n2)cc1 [Compound 23],0 to 25,76 to 100,26 to 50,26 to 50
116 to 117 °C,CC=NOc1ncc(F)c(NCc2ccc(Cl)cc2)n1 [Compound 29],0 to 25,26 to 50,0 to 25,51 to 75
79 to 83 °C,COc1ccc(CN(C)c2nc(ON=Cc3ccc(Cl)cc3)ncc2F)cc1 [Compound 47],26 to 50,26 to 50,26 to 50,51 to 75
127 to 128 °C,Fc1cnc(ON=Cc2ccccc2)nc1NCc1ccc(Cl)cc1 [Compound 26],0 to 25,0 to 25,26 to 50,26 to 50
230 to 242 °C (dec.),CN(C)/C=N/c1nc(ON=Cc2ccc(Cl)cc2)ncc1F [Compound 2],76 to 100,76 to 100,76 to 100,76 to 100
111 to 113 °C,Fc1cnc(ON=Cc2ccccc2)nc1NCc1ccccc1 [Compound 21],0 to 25,76 to 100,51 to 75,76 to 100
